# Assays:
# [1] = system: chick embryo dorsal root ganglion; assay: in vitro serum-free culture model of chick embryonic dorsal root ganglion: neurite growth score with NGF; type: cell-based; conditions: 48 h, score 0-3, average of five ganglions, control 0.33
# Protocol: The neurotrophic activity of the compounds according to the invention can be embodied in multiple in vitro biological models, such as in vitro serum-free culture model of chick embryonic dorsal root ganglion.
# Experimental method: in a sterile environment, chick embryo, which had been incubated for 8 d, had the spinal and bilateral ganglion exposed under anatomical lens. Dorsal root ganglions were picked one by one using sharp forceps, and seeded in culture bottles spread with rat tail collagen, at a density of 5-6 ganglions per bottle, and two bottles for each dose. After attachment culture in a 37° C., 5% CO2 incubator for 1 h, serum-free medium DMEM containing nerve growth factor (NGF) (0.15 ng/mL), and the compound according to the invention were added. In the control group, only the medium and the same dose of NGF were added. After culture in the incubator for 48 h, the growth of neurite around dorsal root ganglion was observed under inverted phase contrast microscope, which was scored depending on the length and density of neurite.
# Evaluation criteria: 0: no neurite; 1: rare long neurite; 2: relatively long or dense neurite; 3: long and dense neurite.
# in vitro = conditions: dog, MDCK-MDR1
# Description: MDCK-MDR1 cells were monolayer cells which highly express P-gp transporter after transfection of MDCK (Madin-Darby canine kidney epithelial cell) with MDR1 gene. Due to its density and high expression of efflux protein, the monolayer has similarity compared to blood-brain barrier (BBB) structure and now can be used as one of models for evaluating the ability of passing through BBB. In the invention, MDCK-MDR1 cells were used to study the membrane permeability of the compounds according to the invention, and to primarily evaluate its ability of passing through BBB.
# The frozen MDCK-MDR1 cells were quickly thawed in a 37° C. water bath. To the resuscitated cells, DMEM medium containing 10% FBS was added, and the cells were cultured in an incubator at 37° C., 5% CO2, and a relative humidity of 90%. The medium was changed every other day. After fusion of the cells growing for 1-2 days, the cells were digested with 0.25% trypsin-EDTA (0.2%) mixed digestion solution at 37° C., and were sub-cultured at a certain ratio. The cells for use in experiment were those passaged for 40-60 generations.
# When the cell fusion degree reached 80%, the cells were digested and then suspended in complete medium, and seeded to Millicell plate at 1×10^6 cells·mL^−1. The medium was changed every other day, and 1 week later, the medium was changed every day. After culturing for 5 days, the resistance value reached a constant value (>200 Ω·cm^2), and the cells could be used in the transport experiment.
# After washing with 37° C. HBSS twice, the cells were incubated in a 37° C. culture incubator, wherein Rho-123 was added to the upper wells, and HBSS was added to the bottom wells. The incubation was carried out in a constant temperature shaker, and the solutions from the bottom wells were collected at each time point (0 min, 30 min, 90 min, 120 min), and stored at −20° C. for further use. The amount of Rho-123 permeated to the bottom well was determined by fluorospectrophotometer, wherein the emission wavelength was […], and the excitation wavelength was 530 nm.
# The permeability from cavity-surface to basal surface: drug-containing HBSS 0.35 mL was add to Apical (AP), and blank HBSS 1.2 mL was added to Basolateral (BL). The Millicell was placed at 37° C. in a shaker under shaking at 50 r·min^−1, 50 μL sample was collected from the bottom well at 0, 30, 90, 120 min, respectively, and the same volume of blank HBSS was supplemented. 3 wells were set for each concentration, and to the sample, an internal standard solution (50 μL) and ethyl acetate (350 μL) were added precisely. The mixture was mixed homogeneously under shaking, and centrifuged at 12000 rmp for 5 min. The supernatant (300 μL) was volatilized to dryness, and re-dissolved in 50 μL acetonitrile. The 10 μL resultant solution was used for determination.
# The permeability from basal surface to cavity surface: the drug is added to Basolateral (BL), and blank HBSS was added to Apical (AP), and the other steps were the same as those of the experiment for determining the permeability from cavity-surface to basal surface.
# The apparent permeability coefficient (Papp) of a drug reflects the ability of the drug to pass through cell monolayer and the drug absorption rate and extent. It can be calculated in accordance with the following equation: […]
# wherein, Q represents the amount of drug permeated in the t period, A represents cell surface area, and represents the area (0.6 cm^2) of supporting film in this model, and C0 represents an initial concentration. The unit of Papp is expressed as cm·s^−1.
# By measurement using LC/MS, the concentration of each sample was quantitated using its standard curve (50 nM-10000 nM).
# [2] = system: BCAO-LBP mice (incomplete global cerebral ischemia); assay: mouse BCAO-LBP model of incomplete global cerebral ischemia: cerebral MDA content and neurological function score; type: in vivo, Kunmin mice
# Description: In the Example, Kunmin mice were used as experimental subjects, intragastric (i.g.) administration was used, mouse BCAO-LBP (bilateral carotid artery occlusion with low blood pressure) model was used, and by determining neurological function score and the cerebral malondialdehyde (MDA) content in mice, the compounds were investigated for their protective effects on incomplete global cerebral ischemia in mice when administered prophylactically.
# 2.1.2 Preparation of a drug for intragastric administration: the compound was prepared to a 1.5 mg/ml solution using 0.7% CMC-Na solution.
# 28 mice, which had adapted to the laboratory environment for 1 week, were evenly grouped depending on body weight. The mice were intragastrically administered with 0.7% CMC-Na or one of the compounds, once/d, for 3 d. The groups were as followed:
# Administration group: 12 mice, intragastrically administered at a dose of 0.2 ml/10 g, i.e., the dose of the compound was 30 mg/kg.
# 2.3.1 Mouse bilateral carotid artery ligation: 1 h after the last administration, the mice were subjected to orbital bloodletting to reduce blood pressure (which was about 30% of the total blood volume of the mice), and then fixed in supine position on the operating table, and cut in the middle of neck. Carotid artery was subjected to blunt dissection, and 2 lines were used in ligation for each side. The time counting started after the ligation with the third line, the carotid artery was cut off between the two lines, and the incision was sewn up. In the Sham-operated group, the carotid artery was only separated without ligation. After the operation, the mice were unfixed quickly, and the mice were observed and recorded for the behaviors within 6 h (scoring depending on the following table using blind method) and the death time. The brains were taken quickly after the mice died, the cerebellums were removed, and the MDA content in the whole cerebrum was determined by thiobarbituric acid (TBA).
# The cerebra of mice were taken and weighed, and were prepared into 15% brain homogenate using N.S. 1.2 ml brain homogenate was placed in a 37° C. water bath for 1 h (shaking once every 10 min) and then taken out. 20% trichloroacetic acid 0.6 ml was added, and the mixture was mixed well, and was on standing for 10 min. After centrifugation at 2000 rpm for 10 min, to 1.2 ml supernatant, 0.67% TBA 0.6 ml was added. The mixture was placed in a boiling water bath for 10 min, and was taken out for cooling, and the OD value at a wavelength of 532 nm was determined.
# The experimental data was expressed as x±SEM; SPSS 13.0 statistic software was used. Homogeneity or heterogeneity of variance was determined by one-factor analysis of variance. In the case of homogeneity of variance, LSD test was used; in the case of heterogeneity of variance, Dunnett's T3 test was used. Significant difference among different groups was compared, and P<0.05 indicated statistical significance.
# [3] = compound 100 pM + NGF 0.15 ng/mL
Papp at 120 min (in vitro) [×10⁻⁶ cm/s],Compound,Average score (growth of neurites of chick embryo dorsal root ganglion) ([1]; compound 1 pM + NGF 0.15 ng/mL),"Average score (growth of neurites of chick embryo dorsal root ganglion) [1, 3]","Neurologic deficit score ([2]; 30 mg/kg i.g. once/d for 3 d, behaviour within 6 h after ligation, x ± SEM, model group 3.92, sham 0.00)","neurologic deficit score decreased compared to the group administered with Compound 5 ([2]; 30 mg/kg i.g., BCAO-LBP mice) [%]","MDA content ([2]; whole cerebrum, 30 mg/kg i.g. once/d for 3 d, x ± SEM, model group 40.94, sham 33.15) [nmol/g]"
37.8,"Cc1ccc(S(=O)(=O)N2CCSC[C@H]2C(=O)N[C@H](Cc2ccccc2)C(=O)OC(C)C)cc1 [Compound 24, (R)-isopropyl-3-phenyl-2((R)-(4-methylphenyl)sulfonyltetrahydro-1,4-thiazin-3-aminoformyl)propionate]",1.89,2.80,–,–,–
22.7,"CCOC(=O)[C@H](Cc1ccccc1)NC(=O)[C@@H]1CSCCN1S(=O)(=O)c1ccc(C)cc1 [Compound 17, (S)-ethyl-3-phenyl-2((R)-(4-methylphenyl)sulfonyltetrahydro-1,4-thiazin-3-aminoformyl)propionate]",1.75,2.71,–,–,–
28.5,"Cc1ccc(S(=O)(=O)N2CCSC[C@H]2C(=O)N[C@@H](Cc2ccccc2)C(=O)OCc2ccccc2)cc1 [Compound 18, (S)-benzyl-3-phenyl-2((R)-(4-methylphenyl)sulfonyltetrahydro-1,4-thiazin-3-aminoformyl)propionate]",1.66,2.68,2.65 ± 0.31,~27,32.66 ± 0.93
42.3,"Cc1ccc(S(=O)(=O)N2CCSC[C@H]2C(=O)N[C@@H](Cc2ccccc2)C(=O)OC(C)(C)C)cc1 [Compound 19, (S)-tert-butyl-3-phenyl-2((R)-(4-methylphenyl)sulfonyltetrahydro-1,4-thiazin-3-aminoformyl)propionate]",1.55,2.49,–,–,–
22.5,"Cc1ccc(S(=O)(=O)N2CCSC[C@H]2C(=O)N[C@H](C(=O)OC(C)(C)C)C(C)C)cc1 [Compound 12, (S)-tert-butyl-3-methyl-2((R)-(4-methylphenyl)sulfonyltetrahydro-1,4-thiazin-3-aminoformyl)butyrate]",1.77,2.48,–,–,–
25.8,"CCOC(=O)[C@@H](Cc1ccccc1)NC(=O)[C@@H]1CSCCN1S(=O)(=O)c1ccc(C)cc1 [Compound 21, (R)-ethyl-3-phenyl-2((R)-(4-methylphenyl)sulfonyltetrahydro-1,4-thiazin-3-aminoformyl)propionate]",1.79,2.74,–,–,–

# Further lines, the compound ahead of its results:
Compound,Papp at 120 min (in vitro) [×10⁻⁶ cm/s],Average score (growth of neurites of chick embryo dorsal root ganglion) ([1]; compound 1 pM + NGF 0.15 ng/mL),"Average score (growth of neurites of chick embryo dorsal root ganglion) [1, 3]","Neurologic deficit score ([2]; 30 mg/kg i.g. once/d for 3 d, behaviour within 6 h after ligation, x ± SEM, model group 3.92, sham 0.00)","neurologic deficit score decreased compared to the group administered with Compound 5 ([2]; 30 mg/kg i.g., BCAO-LBP mice) [%]","MDA content ([2]; whole cerebrum, 30 mg/kg i.g. once/d for 3 d, x ± SEM, model group 40.94, sham 33.15) [nmol/g]"
"Cc1ccc(S(=O)(=O)N2CCSC[C@H]2C(=O)N[C@H](CCc2ccccc2)C(=O)OC(C)C)cc1 [Compound 26, (R)-isopropyl-4-phenyl-2((R)-(4-methylphenyl)sulfonyltetrahydro-1,4-thiazin-3-aminoformyl)butyrate]",35.9,1.80,2.78,–,–,–
"COC(=O)[C@H](Cc1ccccc1)NC(=O)[C@@H]1CSCCN1S(=O)(=O)c1ccc(C)cc1 [Compound 16, (S)-methyl-3-phenyl-2((R)-(4-methylphenyl)sulfonyltetrahydro-1,4-thiazin-3-aminoformyl)propionate]",39.7,1.57,2.69,–,–,–
"COC(=O)[C@@H](NC(=O)[C@@H]1CSCCN1S(=O)(=O)c1ccc(C)cc1)C(C)C [Compound 10, (S)-methyl-3-methyl-2((R)-(4-methylphenyl)sulfonyltetrahydro-1,4-thiazin-3-aminoformyl)butyrate]",34.1,1.54,2.38,–,–,–
"Cc1ccc(S(=O)(=O)N2CCSC[C@H]2C(=O)N[C@@H](CCc2ccccc2)C(=O)OC(C)C)cc1 [Compound 25, (S)-isopropyl-4-phenyl-2((R)-(4-methylphenyl)sulfonyltetrahydro-1,4-thiazin-3-aminoformyl)butyrate]",27.3,1.76,2.68,–,–,–
"COC(=O)[C@H](NC(=O)[C@@H]1CSCCN1S(=O)(=O)c1ccc(C)cc1)C(C)C [Compound 14, (R)-methyl-3-methyl-2((R)-(4-methylphenyl)sulfonyltetrahydro-1,4-thiazin-3-aminoformyl)butyrate]",33.2,1.44,2.35,–,–,–

# Reference: patent US10335417B2, “Thiazideamide derivative and use thereof” (Institute of Pharmacology and Toxicology Academy of …, priority 2015, dated 2019)
